Values of other authors as cited in patent EP1131101B1, “KHELLIN PREPARATION AND THE USE THEREOF FOR TOPICAL THERAPY” (priority 1998, dated 2000).

Legend:
[1] = animal experiments; UVA phototherapy with Khellin compared with photochemotherapy with 8-MOP
Plaque-Psoriasis = details: oral 100 mg Khellin then sun exposure

COc1c2occc2c(OC)c2c(=O)cc(C)oc12 [Khellin, 4,9-Dimethoxy-7-methyl-5H-furo[3,2-g][1] benzopyran-5-on]
karzinogenes Risiko [1]: deutlich geringeres karzinogenes Risiko | auf die Behandlung ansprachen (Plaque-Psoriasis; 10 patients with plaque psoriasis): 80% | für drei Jahre symptomfrei (Plaque-Psoriasis; of the responding patients): 6 von 8 | Mutagenität (Grünalgen): keine signifikante Mutagenität | Photomutagenität (Bakterien): nur eine geringe Photomutagenität
